In US7323303B2, “Modified β-lactamases and uses thereof” (priority 2003, dated 2008):

Key:
[1] = target: T1, B. cereus penPC β-lactamase (Bacillus cereus, UniProt P00809); assay: Drug screening: E166Cf fluorescence in presence of bacterial β-lactamase culture; format: biochemical; parameters: key: −: Decline in fluorescence signal (presence of beta-lactam hydrolysis); +: No decline in fluorescence signal (absence of beta-lactam hydrolysis); settings: antibiotic 1.0×10^−4 M, E166Cf 1.2×10^−7 M
T1 construct: made in house; host or cells: B. subtilis 1A304 (φ105MU331); whole culture used, not purified
T1 sequence (P00809 28-306): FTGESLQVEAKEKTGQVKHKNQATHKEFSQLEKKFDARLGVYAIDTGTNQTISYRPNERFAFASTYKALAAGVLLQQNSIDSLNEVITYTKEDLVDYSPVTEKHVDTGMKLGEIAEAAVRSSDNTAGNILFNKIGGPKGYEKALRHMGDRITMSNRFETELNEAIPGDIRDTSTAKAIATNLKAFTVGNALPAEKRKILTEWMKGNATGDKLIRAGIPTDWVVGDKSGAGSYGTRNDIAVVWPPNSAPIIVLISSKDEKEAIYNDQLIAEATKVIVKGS
Protocol: (§1) The use of the E166Cf enzyme in screening bacterial β-lactamases against various β-lactam antibiotics was investigated. The principle of our method is that when both E166Cf and bacterial β-lactamase are incubated with ‘β-lactamase-unstable’ antibiotics, the fluorescence of the E166Cf enzyme will be suppressed because of the greater catalytic efficiency of the bacterial enzyme. In contrast, when bacterial β-lactamases are screened against ‘β-lactamase-resistant’ antibiotics, the fluorescence of the E166Cf enzyme will be enhanced because of the poor hydrolytic activity of the bacterial enzyme. Thus, any β-lactam antibiotic that causes the labeled enzyme to increase its fluorescence intensity in the presence of bacterial β-lactamases can be used in clinical treatments.
(§2) The β-lactamase II, penPC β-lactamase and penP β-lactamase were expressed in B. subtilis 1A304 (φ105MU331). These enzymes were prepared according to the procedures described previously (Reference 7: Thomwell, S. J. East, A. K., Errington, J. An efficient expression and secretion system based on Bacillus subtilis phage phi 105 and its uses for the production for B. cereus β-lactamase I. (1993) Gene 133, 47-53) with slight modifications. A bacterial strain was streaked on an agar plate containing 5 μg/ml chloramphenicol, and the plate was incubated at 37° C. for 24 h. A single bacterial colony from the agar plate was inoculated into 100 ml of sterilized BHY medium (37 g/l brain heart infusion and 5 g/l yeast extract) which was then incubated at 37° C. with shaking at 300 rpm overnight. About 7 ml of overnight inoculum was added to a baffled conical flask containing 100 ml of sterilized BHY medium. The inoculated medium was incubated at 37° C. with shaking at 300 rpm. When the optical density of the bacterial culture at 600 nm reached 3.5 to 4.0, the bacterial culture was heated in a water bath at 51° C. for 5 min. Afterwards, the bacterial culture was incubated at 37° C. with shaking at 300 rpm for a further 6 h. The bacterial culture was then harvested and stored at −20° C.
(§3) Fluorescence measurements of the E166Cf enzyme in the presence of bacterial cultures and β-lactam antibiotics were performed on a FLUOstar microplate reader (BMG Labtechnologies) equipped with two sample injectors. Excitation and emission filters of 485 and 520 nm respectively were used. For B. cereus penPC β-lactamase, B. licheniformis penP β-lactamase and B. cereus β-lactamase II, the labeled enzymes were mixed with the bacterial cultures, and the mixtures were made up to 300 μl with 50 mM phosphate buffer (pH 7.0) in a 96-well microtiter plate (Corning Costar). For the purpose of comparison, B. subtilis cultures, which produced no β-lactamase, were set up as negative controls. For E. coli. TEM-1 β-lactamase, the labeled enzymes were mixed with the bacterial cultures without dilution. E. coli. cultures, which produced no β-lactamase, were set up as negative controls for comparison. The antibiotics were then added to the bacterial samples by the injectors.
(§4) The results from the time-resolved fluorescence measurements of the labeled enzyme (1.2×10^−7 M) in the presence of various bacterial cultures and β-lactam antibiotics (1.0×10^−4 M) are shown in FIGS. 23 to 26.

B. cereus β-lactamase II = target: T2, B. cereus β-lactamase II (Bacillus cereus, UniProt P04190); assay: as above; format: biochemical; parameters: key: −: Decline in fluorescence signal (presence of beta-lactam hydrolysis); +: No decline in fluorescence signal (absence of beta-lactam hydrolysis); settings: antibiotic 1.0×10^−4 M, E166Cf 1.2×10^−7 M
T2 construct: made in house; host or cells: B. subtilis 1A304 (φ105MU331); whole culture used, not purified
T2 sequence (P04190 31-257): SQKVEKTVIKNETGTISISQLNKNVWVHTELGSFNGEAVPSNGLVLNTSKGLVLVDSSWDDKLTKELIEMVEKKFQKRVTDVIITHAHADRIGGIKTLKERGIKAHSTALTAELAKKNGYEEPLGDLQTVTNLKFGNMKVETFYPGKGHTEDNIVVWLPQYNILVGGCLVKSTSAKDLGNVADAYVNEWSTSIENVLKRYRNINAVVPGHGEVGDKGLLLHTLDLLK
Protocol: as §1, §2, §3, §4

[2] = target: T3, B. licheniformis penP β-lactamase (Bacillus licheniformis, UniProt P00808); assay: as above; format: biochemical; parameters: key: −: Decline in fluorescence signal (presence of beta-lactam hydrolysis); +: No decline in fluorescence signal (absence of beta-lactam hydrolysis); settings: antibiotic 1.0×10^−4 M, E166Cf 1.2×10^−7 M
T3 construct: made in house; host or cells: B. subtilis 1A304 (φ105MU331); whole culture used, not purified
T3 sequence (P00808 27-307): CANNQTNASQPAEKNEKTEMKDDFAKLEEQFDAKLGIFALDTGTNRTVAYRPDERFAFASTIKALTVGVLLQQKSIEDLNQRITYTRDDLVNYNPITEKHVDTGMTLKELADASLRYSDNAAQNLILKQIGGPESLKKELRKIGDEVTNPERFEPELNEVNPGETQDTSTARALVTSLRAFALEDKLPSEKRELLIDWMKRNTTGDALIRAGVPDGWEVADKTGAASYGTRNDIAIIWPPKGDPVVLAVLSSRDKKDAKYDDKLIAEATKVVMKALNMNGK
Protocol: as §1, §2, §3, §4

[3] = target: T4, E166C mutant of β-lactamase I (Bacillus cereus, UniProt P00809, E185C); assay: Spectrophotometric substrate hydrolysis, steady-state kinetics; format: biochemical; settings: 50 mM potassium phosphate buffer pH 7.0, 20° C.
T4 construct: made in house; host or cells: B. subtilis 1A304 (φ105MU331)
T4 sequence (P00809 28-306 E185C): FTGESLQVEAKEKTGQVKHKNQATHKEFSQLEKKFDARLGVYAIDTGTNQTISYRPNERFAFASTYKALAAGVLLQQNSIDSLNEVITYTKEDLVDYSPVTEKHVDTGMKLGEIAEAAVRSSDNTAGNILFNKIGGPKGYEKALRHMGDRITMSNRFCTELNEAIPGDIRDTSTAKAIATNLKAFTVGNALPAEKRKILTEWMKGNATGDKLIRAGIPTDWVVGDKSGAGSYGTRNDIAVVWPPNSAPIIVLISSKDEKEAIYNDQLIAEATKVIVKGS
Protocol: (§5) The hydrolytic activities of the wild-type β-lactamase I, E166C and E166Cf mutants towards penicillin G, penicillin V and ampicillin (Sigma) were monitored by the spectrophotometric method. The spectrophotometric measurements were performed on a Perkin Elmer Lambda Bio20 UV/Vis spectrometer. Substrate hydrolysis was monitored at a fixed wavelength: 235 nm for ampicillin, 232 nm for penicillin G and penicillin V. The initial rate of substrate hydrolysis occurring within 5 min was determined in duplicate at each of 6 different substrate concentrations in 50 mM potassium phosphate buffer (pH 7.0) at 20° C. The initial rates determined were then treated as described in Reference 5 to calculate the Michaelis constants (Km) and turnover numbers (kcat) using non-linear regression analysis (equation 1):
(§6) [formula] where v is the initial rate of substrate hydrolysis, Vmax the maximum rate of reaction, [S] the initial substrate concentration, Km the Michaelis constant and kcat=Vmax/[Enzyme].
(§7) The measured steady-state kinetic parameters for hydrolysis of penicillin G, penicillin V and ampicillin by the wild-type β-lactamase I, E166C and E166Cf mutants are summarized in Table 1.

[4] = target: T5, E166Cf (fluorescein-labeled E166C mutant of β-lactamase I) (Bacillus cereus, UniProt P00809, E185C); assay: as above; format: biochemical; settings: E166Cf; 50 mM potassium phosphate buffer pH 7.0, 20° C.
T5 construct: made in house; host or cells: B. subtilis 1A304 (φ105MU331); then labelled chemically
T5 sequence (P00809 28-306 E185C): T4 sequence (P00809 28-306 E185C)
Protocol: as §5, §6, §7
At high substrate concentration (1.0×10^−5 and 1.0×10^−4 M), the penicillin substrates rapidly occupy the active sites to form the ES complexes, thus switching on the fluorescence of the fluorescein labels instantaneously. […] This can be verified by the fact that the ‘plateau time’ (8 and 22 min for 1.0×10^−5 and 1.0×10^−4 M penicillin G respectively) is consistent with the ‘substrate hydrolysis time’ determined by spectrophotometric assays (7 and 20 min for 1.0×10^−5 and 1.0×10^−4 M penicillin G respectively). When most of the penicillin substrates have been hydrolyzed to carboxylic acids, the fluorescence signal of the labeled enzyme will decline subsequently.

E166Cf enzyme [5] = target: T6, E166Cf enzyme (Bacillus cereus, UniProt P00809, E185C); assay: Detection of β-lactam antibiotics in milk by E166Cf fluorescence; settings: untreated milk; E166Cf 1.2×10^−7 M
T6 construct: made in house; host or cells: B. subtilis 1A304 (φ105MU331); then labelled chemically
T6 sequence (P00809 28-306 E185C): T4 sequence (P00809 28-306 E185C)
Protocol: Fluorescence measurements of the E166Cf enzyme in milk in the presence of penicillin G and ampicillin were performed on a FLUOstar microplate reader (BMG Labtechnologies) equipped with two sample injectors. Excitation and emission filters of 485 and 520 nm respectively were used. Milk (pasteurized and homogenized, Nestle Dairy Farm) was purchased at a local supermarket. The labeled enzyme was mixed with the milk sample in a 96-well microtiter plate (Corning Costar). The antibiotics were then added to the mixtures by the injectors.
FIGS. 21 and 22 show the results from the time-resolved fluorescence measurements of the labeled enzyme (1.2×10^−7 M) in untreated milk in the presence of various concentrations of penicillin G and ampicillin respectively.

[6] = target: T7, E. coli TEM-1 β-lactamase (Escherichia coli, UniProt P62593); assay: Drug screening: E166Cf fluorescence in presence of bacterial β-lactamase culture; format: biochemical; parameters: key: −: Decline in fluorescence signal (presence of beta-lactam hydrolysis); +: No decline in fluorescence signal (absence of beta-lactam hydrolysis); settings: E. coli TEM-1 culture, undiluted; antibiotic 1.0×10^−4 M; E166Cf 1.2×10^−7 M
T7 construct: made in house; host or cells: E. coli BL21(DE3); whole overnight culture used undiluted, not purified
T7 sequence (P62593 24-286 limits assumed): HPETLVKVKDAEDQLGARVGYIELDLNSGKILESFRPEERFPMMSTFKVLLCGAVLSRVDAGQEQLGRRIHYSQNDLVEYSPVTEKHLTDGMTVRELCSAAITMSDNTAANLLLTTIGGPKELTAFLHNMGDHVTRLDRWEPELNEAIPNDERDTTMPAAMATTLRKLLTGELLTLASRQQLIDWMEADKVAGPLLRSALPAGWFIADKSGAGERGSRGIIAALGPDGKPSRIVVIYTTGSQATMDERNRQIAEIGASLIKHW
Protocol: as §1
The TEM-1 β-lactamase was expressed in E. coli. BL21(DE3). Preparation of the TEM-1 β-lactamase was performed as follows. A bacterial strain was streaked on an agar plate containing 100 μg/ml ampicillin, and the plate was incubated at 37° C. for 24 h. A single bacterial colony from the plate was inoculated into 100 ml of sterilized LB broth (28 g/l) which was then incubated at 37° C. with shaking at 280 rpm overnight. After overnight incubation, the bacterial culture was harvested and stored at −20° C.
as §3, §4

E166Cf enzyme [7] = target: T6, E166Cf enzyme; assay: Time-resolved fluorescence of E166Cf enzyme with β-lactamase inhibitors; format: biochemical; settings: 1.0×10^−4 M inhibitor; E166Cf 1.2×10^−7 M, 50 mM phosphate buffer pH 7.0
Protocol: Time-resolved fluorescence measurements of the E166Cf enzyme in the presence of sulbactam and clavulanate were performed on a Perkin Elmer LS50B spectrofluorometer. The excitation and emission wavelengths were set at 494 and 515 nm respectively. Both excitation and emission slit widths were set at 5 nm. All fluorescence measurements were performed at room temperature.
The fluorescence signals of the labeled enzyme (1.2×10^−7 M) obtained with sulbactam (1.0×10^−4 M) and clavulanate (1.0×10^−3 M) in 50 mM phosphate buffer (pH 7.0) are entirely different (FIGS. 18 and 19).

Structure (SMILES) | fluorescence signal of E166Cf (beta-lactam hydrolysis) [1] | fluorescence signal of E166Cf (beta-lactam hydrolysis) (B. cereus β-lactamase II) | fluorescence signal of E166Cf (beta-lactam hydrolysis) [2] | Km [3] [µM] | kcat [3] [s⁻¹] | Km [4] [µM] | kcat [4] [s⁻¹] | lowest concentration detected by the labeled enzyme (E166Cf enzyme [5]) | fluorescence signal of E166Cf (beta-lactam hydrolysis) [6] | time course of E166Cf fluorescence intensity at 515 nm (E166Cf enzyme [7])
CC1(C)S[C@@H]2[C@H](NC(=O)[C@H](N)c3ccccc3)C(=O)N2[C@H]1C(=O)O [Ampicillin, ampicillin] | − | − | − | 306 ± 30 | 4.1 ± 0.1 | 262 ± 31 | 6.2 ± 0.2 | 10^−6 M | − | 
CC1(C)[C@H](C(=O)O)N2C(=O)C[C@H]2S1(=O)=O [sulbactam] |  |  |  |  |  |  |  |  |  | increases rapidly at the initial stage and then declines slowly
